Results on 6 sequences are retold here after US7094868B2, “Peptides for recognition and targeting of GLIAL cell tumors” (Auburn University, priority 2002, dated 2006).

The subject of data set [1] is αv, β3, and β1 integrins. In words: Affinity precipitation of RG2 cell membrane proteins with cross-linked phage, Western blot with anti-integrin antibodies. Type of data set: binding, rat. Here is the method:
Experiments were performed to isolate and purify the RG2-cell-specific protein that was responsible for binding of the ELRGDSLP phage clone to glioma cells. The basic approach was to perform precipitation of RG2 cell membrane proteins by using the phage clone to form an affinity matrix.
To prepare the RG2 cell membrane proteins, RG2 glioma cells were grown in 25 cm^2 tissue culture flasks. The growing medium was removed from the flasks and cells were collected in PBS buffer containing protease inhibitors. Cells were then pelleted by centrifugation and lysed with octylglucoside buffer (10 mM Tris-HCl, pH 7.5, 140 mM NaCl, 10 mM octylglucoside (Sigma), and protease inhibitor cocktail (Sigma); 5 ml per flask). The cell lysate was clarified by centrifugation and the supernatant containing cell membrane proteins was then used for isolation of glioma-specific receptor proteins.
Cross-linked phage were prepared by the method of Smith et al. (1998) (J. Immunol. Methods 215: 151–161) using a water-soluble, multifunctional dextran polymer. After that, ELRGDSLP cross-linked phage were incubated with the clarified lysate of RG2 cells. Following incubation, the crosslinked phage-receptor protein complexes were pelleted by centrifugation at 10,000 rpm for 15 minutes. Phage particles that were not cross-linked remained in the buffer and were discarded. […]
In general terms: Immunoblotting shows a protein as a band on a membrane.

For data set [2], the system named is human glioma cell lines SW1088, M059K, A172, and HS 683. As to the kind of experiment: Phage clone binding to human glioma cell lines. Type of data set: cell-based. Particulars: A172, HS 683. Here is the method: The ELRGDSLP phage clone was tested further for binding to four different human glioma cell lines: SW1088, M059K, A172, and HS 683, all obtained from the ATCC.

The subject of data set [3] is RG2 glioma cells. In words: Evaluation of binding selectivity: phage output/input titer, RG2 glioma versus control cell lines overall. Type of data set: cell-based, rat. Here is the method:
(§1) All analyses were performed in triplicate.

Data set [4] has as its system F98 glioma cells. As to the kind of experiment: Evaluation of binding selectivity: phage output/input titer on F98 glioma. Type of data set: cell-based, rat. Particulars: eluted phage. Here is the method: as §1
Data set [5] concerns CTX TNA2 astrocytes. In words: Evaluation of binding selectivity: phage output/input titer on normal astrocytes. Type of data set: cell-based, rat. The following applies: for binding selectivity, RG2 glioma versus normal astrocytes: cell-attached phage recovered by elution, FIGS. 7, 10. Here is the method:
as §1

In data set [6] the test system is RG2 glioma cells. In words: Quantitation of binding specificity: phage output/input titer on RG2 glioma cells. The following applies: cell-surface-bound phage eluted with low pH buffer; 10^9 cfu/flask, 1 hour, room temperature; FIG. 3. Type of data set: cell-based, rat. Here is the method: as §1
For data set [7], the system named is BRL 3A hepatocytes, H9c2(2-1) cardiac myoblasts, 27FR fibroblasts. Particulars: cell-attached phage recovered by elution; FIGS. 4, 7, 10. Here is the method: In order to evaluate the binding specificity conferred by the peptides, various phage clones were incubated with RG2 glioma cells. Two control phage were compared to the RG2 affinity-selected candidate phage clones (see FIG. 3). […] For the quantitation assay, RG2 cells were grown in 25 cm^2 flasks for approximately 48 hours to sub-confluence. One hour prior to application of phage, the normal media was replaced with serum-free media and incubation was continued. Each phage clone (10^9 cfu/flask) was added to a flask of cells in 2 ml of washing/blocking buffer and incubated for 1 hour at room temperature. Following incubation, unbound phage were removed by washing the cells remaining in the flasks 8 times with 4 ml of cold washing/blocking buffer for 5 minutes per wash. Cell surface-bound phage were recovered by incubation with 1 ml of elution buffer for 10 minutes on ice. The eluate was removed from flasks and neutralized with 1 M Tris. Cells were washed again two times with washing/blocking buffer and lysed by incubation with 1 ml lysis buffer for 30 min at room temperature; the lysate was processed as above. Phage titers were determined by infection of bacteria and are presented in FIG. 3 as a ratio of output to input phage. All analyses were performed in triplicate. […]

As for “ELRGDSLP [phage clone displaying the synthetic peptide on major coat protein pVIII]”, the “signal with anti-integrin antibodies in phage-purified protein eluate” value in data set [1] is “did not produce any positive signal”. Also, the “binding to human glioma cell lines (in words)” value in data set [2] was “pronounced glioma-specific binding properties”. In data set [3] (lysis, FIGS. 5 and 11), the “output/input phage ratio compared between ELRGDSLP and ESRGDSYA phage clones” value is recorded as “significantly lower”.
As to “DYDMTKNT [phage clone displaying the synthetic peptide on major coat protein pVIII]”, in data set [3] (RG2 and F98 glioma, astrocytes, myoblasts, hepatocytes, fibroblasts), the “binding selectivity for glioma cells compared to control cells (in words)” value is listed as “very selective binding”.
As to “DSTKSGNM [phage clone displaying the synthetic peptide on major coat protein pVIII]”, the “binding to F98 glioma compared to RG2 glioma (in words)” value in data set [4] (FIG. 7) is “even better binding”. In addition, in data set [5], the “binding selectivity, RG2 glioma versus normal astrocytes” value is reported as 25 fold.
Turning to “DLTKSTAP [phage clone displaying the synthetic peptide on major coat protein pVIII]”, the “binding selectivity, RG2 glioma versus normal astrocytes” value in data set [5] is given as “approximately 14 fold”.
On to “VDLPQHGQ [phage clone displaying the synthetic peptide on major coat protein pVIII]”, for which the “ratio of output to input phage (apparent binding affinity) on RG2 glioma cells” value in data set [6] is on record as “highest”.
For VGLPEHTQ, the “binding to F98 glioma as % of RG2-binding level” value in data set [4] (FIG. 4) was found to be 41%. Further, in data set [6], the “ratio of output to input phage (apparent binding affinity) on RG2 glioma cells” value was “highest”. Moreover, the “binding to normal astrocytes as % of RG2-binding level” value in data set [5] (eluted phage, FIG. 4) was 64%. The “binding selectivity, RG2 glioma versus hepatocytes, myoblasts and fibroblasts” value in data set [7] is on record as “approximately 5 fold”.
